The values that follow come from the NIST ThermoML archive (doi:10.1007/s10765-013-1432-0).

Numbers after ± are expanded uncertainties.

The nature of this data set: mn = molality of the nth substance listed, in mol/kg. Conditions: 101 kPa, Liquid, Linear variable-path acoustic interferometer, m1 = 0.512.

Turning to `O=[N+]([O-])[O-].[K+]` [potassium nitrate] + O, the speed of sound turned out to be 1517.8 ± 1.8 m/s (298.15 K); 1526.8 ± 1.8 m/s (303.15 K); 1536.3 ± 1.8 m/s (308.15 K); 1544.4 ± 1.8 m/s (313.15 K); 1551.1 ± 1.8 m/s (318.15 K); 1556.6 ± 1.9 m/s (323.15 K).

Consider `O=S(=O)([O-])[O-].[K+].[K+]` [potassium sulfate] + O, for which the speed of sound (298.15 K) worked out at 1563.6 ± 1.9 m/s; the speed of sound (303.15 K) worked out at 1571.6 ± 1.8 m/s; the speed of sound (308.15 K) is listed as 1580.3 ± 1.8 m/s; the speed of sound (313.15 K) turned out to be 1587.6 ± 1.8 m/s; the speed of sound (318.15 K) is given as 1593.5 ± 1.8 m/s; the speed of sound (323.15 K) is on record as 1598.3 ± 1.9 m/s.
